# Source: ChEMBL document CHEMBL5576069, “Novel 4-[4-(4-methylpiperazin-1-yl)phenyl]-6-arylpyrimidine derivatives and their antitrypanosomal activities against T.brucei” (Bioorg Med Chem Lett, 2024)
# Activity calls are given as the source filed them. The calls are words filed in the database; no cut-off is given here.
# Experiments:
# [1] = test system: Trypanosoma brucei rhodesiense; assay: Antitrypanosomal activity against Trypanosoma brucei rhodesiense STIB900 trypomastigotes incubated for 70 hrs by resazurin dye based microplate fluorometer; format: functional, organism-based; settings: STIB900, 70 h
# [2] = Cytotoxicity against rat L6 cells; format: toxicity, cell-based
# Trypanosoma cruzi = assay: Antitrypanosomal activity against Trypanosoma cruzi Tulahuen C4; format: functional, organism-based
# Leishmania donovani = assay: Antitrypanosomal activity against Leishmania donovani amastigotes MHOM-ET-67/L8; format: functional, organism-based
# [3] = test system: Trypanosoma brucei rhodesiense; assay: Antitrypanosomal activity against Trypanosoma brucei rhodesiense; format: functional, organism-based
EC50 [1] [µM],EC50 [3] [µM],EC90 [3] [µM],Compound,EC50 [2] [µM],Activity (Trypanosoma cruzi),Activity (Leishmania donovani)
0.5,,,CN1CCN(c2ccc(-c3cc(-c4ccc(Cl)cc4Cl)nc(N)n3)cc2)CC1,7.4,inactive,inactive
1.6,,,CN1CCN(c2ccc(-c3cc(-c4ccc(Br)cc4)nc(N)n3)cc2)CC1,5.1,inactive,inactive
0.9,,,Cc1nc(-c2ccc(Br)cc2)cc(-c2ccc(N3CCN(C)CC3)cc2)n1,11.2,inactive,inactive
1.7,,,CN1CCN(c2ccc(-c3cc(-c4cccc(Cl)c4)ncn3)cc2)CC1,36.3,inactive,inactive
3.6,,,Cc1nc(-c2ccc(N3CCN(C)CC3)cc2)cc(-c2cccc(Cl)c2Cl)n1,37.3,inactive,inactive
1.6,,,Cc1nc(-c2ccc(N3CCN(C)CC3)cc2)cc(-c2cccc(Br)c2)n1,21.1,inactive,inactive
14,,,CN1CCN(c2ccc(-c3cc(-c4ccccc4[N+](=O)[O-])nc(N)n3)cc2)CC1,7.1,inactive,inactive
10.1,,,Cc1nc(-c2ccc(N3CCN(C)CC3)cc2)cc(-c2ccc(Cl)cc2Cl)n1,> 100,inactive,inactive
3.8,,,CN1CCN(c2ccc(-c3cc(-c4ccccc4)ncn3)cc2)CC1,42.7,inactive,inactive
15.2,,,CN1CCN(c2ccc(-c3cc(-c4ccccc4[N+](=O)[O-])ncn3)cc2)CC1,46.9,inactive,inactive
10.3,,,CN1CCN(c2ccc(-c3cc(-c4ccccc4Br)nc(N)n3)cc2)CC1,11.6,inactive,inactive
2.4,,,CN1CCN(c2ccc(-c3cc(-c4ccc(Cl)cc4Cl)ncn3)cc2)CC1,> 100,inactive,inactive
1.8,,,CN1CCN(c2ccc(-c3cc(-c4ccc(Cl)cc4)nc(N)n3)cc2)CC1,13,inactive,inactive
1.7,,,CN1CCN(c2ccc(-c3cc(-c4cccc(Cl)c4)nc(N)n3)cc2)CC1,79.7,inactive,inactive
0.6,,,Cc1nc(-c2ccc(Cl)cc2)cc(-c2ccc(N3CCN(C)CC3)cc2)n1,5.3,inactive,inactive
,0.76,0.76,CSc1ccc(OCc2ncc([N+](=O)[O-])n2C)cc1 [FEXINIDAZOLE],,,
20.2,,,CN1CCN(c2ccc(-c3cc(-c4ccccc4Cl)nc(N)n3)cc2)CC1,40,inactive,inactive
2.8,,,Cc1nc(-c2ccccc2)cc(-c2ccc(N3CCN(C)CC3)cc2)n1,79.7,inactive,inactive
1.6,,,CN1CCN(c2ccc(-c3cc(-c4cccc(Br)c4)ncn3)cc2)CC1,64.5,inactive,inactive
,,,COc1cc([C@@H]2c3cc4c(cc3[C@H](O)[C@H]3COC(=O)[C@H]23)OCO4)cc(OC)c1OC [PODOFILOX],0.02,,
0.5,,,CN1CCN(c2ccc(-c3cc(-c4ccc(Cl)cc4)ncn3)cc2)CC1,16.4,inactive,inactive
5.8,,,CN1CCN(c2ccc(-c3cc(-c4ccccc4Cl)ncn3)cc2)CC1,42.6,inactive,inactive
4.3,,,Cc1nc(-c2ccc(N3CCN(C)CC3)cc2)cc(-c2ccccc2Br)n1,35.2,inactive,inactive
3.6,,,CN1CCN(c2ccc(-c3cc(-c4ccccc4)nc(N)n3)cc2)CC1,30,inactive,inactive
1.1,,,CN1CCN(c2ccc(-c3cc(-c4cccc(Br)c4)nc(N)n3)cc2)CC1,33.6,inactive,inactive
9.7,,,CN1CCN(c2ccc(-c3cc(-c4ccccc4Br)ncn3)cc2)CC1,39.6,inactive,inactive
0.6,,,CN1CCN(c2ccc(-c3cc(-c4ccc(Br)cc4)ncn3)cc2)CC1,14.4,inactive,inactive
1.7,,,Cc1nc(-c2ccc(N3CCN(C)CC3)cc2)cc(-c2cccc(Cl)c2)n1,20.8,inactive,inactive
13.5,,,Cc1nc(-c2ccc(N3CCN(C)CC3)cc2)cc(-c2ccccc2[N+](=O)[O-])n1,40.2,inactive,inactive
1.8,,,CN1CCN(c2ccc(-c3cc(-c4cccc(Cl)c4Cl)ncn3)cc2)CC1,18.1,inactive,inactive
